Legend:
Mus musculus [1] = test: In vivo inhibition of delta-5 desaturase in mouse liver assessed as conversion of [14C]-DGLA to [14C]-arachidonic acid at 30 mg/kg, po after 2.5 hrs by TLC analysis relative to control; type: functional
[2] = molecular target: T1, Acyl-CoA (8-3)-desaturase (Homo sapiens, UniProt O60427); test: Inhibition of liver delta-5 desaturase (unknown origin)
Target sequence in this assay (O60427 whole entry): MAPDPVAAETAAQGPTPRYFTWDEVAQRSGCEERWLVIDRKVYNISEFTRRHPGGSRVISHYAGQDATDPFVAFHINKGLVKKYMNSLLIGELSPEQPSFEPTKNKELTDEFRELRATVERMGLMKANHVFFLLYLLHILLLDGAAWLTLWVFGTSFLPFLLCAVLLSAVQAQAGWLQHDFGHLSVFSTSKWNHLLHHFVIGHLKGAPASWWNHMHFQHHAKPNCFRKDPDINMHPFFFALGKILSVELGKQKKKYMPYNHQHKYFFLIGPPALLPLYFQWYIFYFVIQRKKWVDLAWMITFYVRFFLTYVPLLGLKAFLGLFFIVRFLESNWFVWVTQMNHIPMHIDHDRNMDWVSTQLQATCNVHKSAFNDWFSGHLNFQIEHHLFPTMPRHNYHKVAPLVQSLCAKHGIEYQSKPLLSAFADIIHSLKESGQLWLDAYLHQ

[3] = Plasma concentration in mouse at 30 mg/kg, po after 0.5 hrs by LC/MS-MS analysis; type: ADME, organism-based
[4] = Ratio of plasma concentration in mouse at 30 mg/kg, po after 0.5 hrs to IC50 for liver delta-5 desaturase (unknown origin); type: ADME, organism-based; conditions: in vivo
[5] = molecular target: T1, Acyl-CoA (8-3)-desaturase; test: Inhibition of liver delta-5 desaturase (unknown origin) at 1 uM
Target sequence in this assay (O60427 whole entry, looked up): as the sequence (O60427 whole entry) above

[6] = Plasma concentration in mouse at 60 mg/kg, po after 0.5 hrs by LC/MS-MS analysis; type: ADME, organism-based
Mus musculus [7] = test: In vivo inhibition of delta-5 desaturase in mouse liver assessed as conversion of [14C]-DGLA to [14C]-arachidonic acid at 60 mg/kg, po after 2.5 hrs by TLC analysis relative to control; type: functional
[8] = Ratio of plasma concentration in mouse at 60 mg/kg, po after 0.5 hrs to IC50 for liver delta-5 desaturase (unknown origin); type: ADME, organism-based; conditions: in vivo

Structure (SMILES)	IC50 [2] [nM]	further results
Fc1ccc2[nH]nc(Nc3cccc(Cl)c3)c2c1	58	inhibition in vivo at 30 mg/kg (Mus musculus [1]): 49%; concentration at 0.5 h [3]: 14.1 µM; Ratio [4]: 242
Clc1cccc(Nc2n[nH]c3ccccc23)c1	84	inhibition in vivo at 30 mg/kg (Mus musculus [1]): 42%; concentration at 0.5 h [3]: 12.7 µM; Ratio [4]: 151
Nc1ccccc1C(=O)Nc1ccc(F)c(Cl)c1	155	–
CC(C)c1cccc(NC(=O)c2ccccc2N)c1	843	–
Nc1ccc(Cl)cc1C(=O)Nc1cccc(Cl)c1	34	–
Clc1cccc(Nc2nccc3occc23)c1	371	–
Clc1cccc(Nc2n[nH]c3ccc(Cl)cc23)c1	5	–
Cc1ccc2[nH]nc(Nc3cccc(Cl)c3)c2c1	6	–
Nc1ccccc1C(=O)Nc1cccc(Cl)c1	58	–
Clc1cccc(Nc2ncnc3ccsc23)c1	50	–
CCOc1ccc(O)c(C(=O)Nc2cccc(Cl)c2)c1	925	–
FC(F)(F)Oc1ccc2[nH]nc(Nc3cccc(Cl)c3)c2c1	> 3000	–
Fc1cccc(Nc2n[nH]c3ccccc23)c1	59	inhibition in vivo at 30 mg/kg (Mus musculus [1]): 18%; concentration at 0.5 h [3]: 9.45 µM; Ratio [4]: 160
Clc1cccc(NC2CCc3ccccc32)c1 (stereo not drawn)	173	–
Nc1ccccc1C(=O)Nc1cccc(F)c1	516	–
Nc1ccccc1C(=O)Nc1ccccc1Cl	–	inhibition [5]: 39%
O=C(Nc1cccc(Cl)c1)c1ccccc1O	174	–
Clc1cccc(Nc2cccc3ccccc23)c1	17	–
Clc1cccc(Nc2ncnc3sccc23)c1	260	–
Nc1ccccc1C(=O)Nc1cc(Cl)cc(Cl)c1	245	–
Clc1cccc(Nc2n[nH]c3ccc(Br)cc23)c1	21	–
Clc1cccc(Nc2ccnc3ccccc23)c1	18	–
FC(F)(F)c1ccc2[nH]nc(Nc3cccc(Cl)c3)c2c1	254	–
Nc1ccc(F)cc1C(=O)Nc1cccc(Cl)c1	67	–
COc1ccc(O)c(C(=O)Nc2cccc(Cl)c2)c1	15	–
Nc1ccccc1C(=O)Nc1ccc(Cl)cc1	–	inhibition [5]: 36%
COc1ccc2[nH]nc(Nc3cccc(Cl)c3)c2c1	8	inhibition in vivo at 30 mg/kg (Mus musculus [1]): 75%; concentration at 0.5 h [3]: 5.21 µM; concentration at 0.5 h [6]: 14 µM; Ratio [4]: 652; inhibition in vivo at 60 mg/kg (Mus musculus [7]): 97%; Ratio [8]: 1753
Clc1cccc(Nc2ncnc3ccccc23)c1	11	–

Reference: ChEMBL document CHEMBL3608212, “Design, synthesis, and in vivo activity of novel inhibitors of delta-5 desaturase for the treatment of metabolic syndrome” (Bioorg Med Chem Lett, 2015)
